The target in one test is GSK3β (Homo sapiens, UniProt P49841). As to the kind of experiment: GSK3β kinase assay (Caliper LabChip3000 mobility shift, fluoresceinated peptide substrate). The note with it: for IC50: 250 pM enzyme, 20 uM ATP, 1.5 uM peptide, 20 hours room temperature, first value of cell GSK3β/GSK3α, read-out: GSK3β (nM), IC50. It is filed as biochemical.
In a further test the test system is pTau. As to the kind of experiment: pTau assay (no method described). It counts as cell-based.
The next test concerns the target GSK3α (Homo sapiens, UniProt P49840). The test can be described thus: GSK3α kinase assay (Caliper LabChip3000 mobility shift, fluoresceinated peptide substrate).

pIC50: −log10 of the molar value. Read-outs that look alike come from different tables or passages of the source.

Sequence of GSK3α (P49840 whole entry, species assumed): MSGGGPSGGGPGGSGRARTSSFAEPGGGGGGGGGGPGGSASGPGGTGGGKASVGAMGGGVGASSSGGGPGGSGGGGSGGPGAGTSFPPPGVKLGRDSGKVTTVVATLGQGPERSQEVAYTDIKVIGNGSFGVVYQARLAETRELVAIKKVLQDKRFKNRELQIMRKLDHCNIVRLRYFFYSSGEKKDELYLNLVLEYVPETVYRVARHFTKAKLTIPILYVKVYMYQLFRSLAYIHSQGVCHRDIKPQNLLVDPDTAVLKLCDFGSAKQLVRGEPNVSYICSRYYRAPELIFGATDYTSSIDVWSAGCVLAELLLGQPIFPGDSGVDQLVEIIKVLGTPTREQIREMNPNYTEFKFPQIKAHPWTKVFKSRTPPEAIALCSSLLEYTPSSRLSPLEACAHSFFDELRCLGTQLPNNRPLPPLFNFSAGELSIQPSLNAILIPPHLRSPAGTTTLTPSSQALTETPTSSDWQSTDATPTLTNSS
Sequence of GSK3β (P49841 whole entry, species assumed): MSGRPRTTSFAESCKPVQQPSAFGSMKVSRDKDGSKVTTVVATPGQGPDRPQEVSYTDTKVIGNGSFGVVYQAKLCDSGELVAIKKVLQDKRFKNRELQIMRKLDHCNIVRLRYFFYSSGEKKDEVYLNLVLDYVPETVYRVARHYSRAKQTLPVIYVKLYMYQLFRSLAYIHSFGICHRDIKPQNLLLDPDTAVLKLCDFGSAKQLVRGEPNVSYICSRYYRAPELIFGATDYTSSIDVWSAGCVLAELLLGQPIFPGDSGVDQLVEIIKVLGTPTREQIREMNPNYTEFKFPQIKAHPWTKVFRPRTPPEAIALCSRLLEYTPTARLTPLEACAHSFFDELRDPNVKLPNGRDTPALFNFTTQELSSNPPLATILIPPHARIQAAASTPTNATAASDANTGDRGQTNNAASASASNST

With `O=C(Nc1cnccc1-c1ccccc1)c1ccnc(Nc2ccc(F)cc2)n1` [Example 5, 2-((4-Fluorophenyl)amino)-N-(4-phenylpyridin-3-yl)pyrimidine-4-carboxamide], the IC50 at GSK3β was 0.26 nM. Further, the pIC50 in the test on pTau was 7.43; on GSK3α, 9.72.

Regarding `O=C(Nc1cncnc1OCC(F)(F)F)c1ccnc(NCC2CC2)n1` [Example 192, 2-((Cyclopropylmethyl)amino)-N-(4-(2,2,2-trifluoroethoxy)pyrimidin-5-yl)pyrimidine-4-carboxamide], at GSK3β, the IC50 turned out to be 4.8 nM. The pIC50 is 6.32 in the test with pTau and 8.32 at GSK3α.

In the case of `O=C(Nc1cncnc1)c1ccnc(N[C@H]2C[C@@H]2c2ccccc2)n1` [Example 202, 2-(((1S,2R)-2-Phenylcyclopropyl)amino)-N-(pyrimidin-5-yl)pyrimidine-4-carboxamide], the IC50 on GSK3β was determined as 120 nM. In addition, the pIC50 was 5.64 in the test on pTau and 7.24 at GSK3α.

In the case of `O=C(Nc1cncnc1)c1ccnc(Nc2cccc(-c3ccc(Cl)cc3)c2)n1` [Example 193, 2-((4′-Chloro-[1,1′-biphenyl]-3-yl)amino)-N-(pyrimidin-5-yl)pyrimidine-4-carboxamide], the IC50 on GSK3β was determined as 3.4 nM. The pIC50 with pTau is 6.21; on GSK3α it was 8.74.

As to `CCn1nccc1Nc1nccc(C(=O)Nc2cnccc2-c2ccccc2)n1` [Example 90, 2-((1-Ethyl-1H-pyrazol-5-yl)amino)-N-(4-phenylpyridin-3-yl)pyrimidine-4-carboxamide], the pIC50 on GSK3β was 8.52; in the test with pTau, 6.92; on GSK3α it was 8.66.

Consider `O=C(Nc1cnccc1-c1ccccc1)c1ccnc(Nc2cccnc2)n1` [Example 34, N-(4-Phenylpyridin-3-yl)-2-(pyridin-3-ylamino)pyrimidine-4-carboxamide], for which the IC50 on GSK3β was 1.2 nM. The pIC50 in the test with pTau was 7.34; at GSK3α, 9.16.

Consider `O=C(Nc1cncnc1OCC(F)(F)F)c1ccnc(NCC2CCC2)n1` [Example 188, 2-((Cyclobutylmethyl)amino)-N-(4-(2,2,2-trifluoroethoxy)pyrimidin-5-yl)pyrimidine-4-carboxamide], for which the pIC50 was 9.08 at GSK3β, 6.74 in the test with pTau and 9.00 at GSK3α.

For `O=C(Nc1cnc(F)cc1N1CCC(F)(F)CC1)c1ccnc(Nc2ccc(F)cc2)n1` [Example 180, N-(4-(4,4-Difluoropiperidin-1-yl)-6-fluoropyridin-3-yl)-2-((4-fluorophenyl)amino)pyrimidine-4-carboxamide], the IC50 on GSK3β stood at 0.9 nM. The pIC50 in the test on pTau is 7.17; at GSK3α, 9.41.

Turning to `O=C(Nc1cnccc1OCC(F)(F)F)c1ccnc(NCC(F)(F)F)n1` [Example 141, N-(4-(2,2,2-Trifluoroethoxy)pyridin-3-yl)-2-((2,2,2-trifluoroethyl)amino)pyrimidine-4-carboxamide], the IC50 at GSK3β amounted to 7.8 nM. The pIC50 with pTau is 6.52; on GSK3α it was 8.10.

In the case of `O=C(Nc1cncc(-c2ccccc2F)c1)c1ccnc(Nc2cccc(C(F)(F)F)c2)n1` [Example 185, N-(5-(2-Fluorophenyl)pyridin-3-yl)-2-((3-(trifluoromethyl)phenyl)amino)pyrimidine-4-carboxamide], at GSK3β, the IC50 is 5.9 nM. Further, the pIC50 in the test on pTau was 6.28; at GSK3α it was 8.64.

For `CC(Nc1nccc(C(=O)Nc2cnccc2-c2ccc(F)cc2)n1)C(C)(C)C` (stereo not drawn) [Example 157, 2-((3,3-Dimethylbutan-2-yl)amino)-N-(4-(4-fluorophenyl)pyridin-3-yl)pyrimidine-4-carboxamide], the IC50 on GSK3β turned out to be 2.2 nM. Also, the pIC50 in the test with pTau was 6.39; on GSK3α, 9.14.

For the compound `O=C(Nc1cnccc1-c1ccccc1)c1ccnc(Nc2cnns2)n1` [Example 101, 2-((1,2,3-Thiadiazol-5-yl)amino)-N-(4-phenylpyridin-3-yl)pyrimidine-4-carboxamide], the concentration for half-maximal inhibition (IC50) on GSK3β stood at 100 nM. Further, the pIC50 in the test with pTau is 5.05; on GSK3α, 7.38.

For `O=C(Nc1cncnc1OCC(F)(F)F)c1ccnc(Nc2ccc(C(F)(F)F)cc2)n1` [Example 68, N-(4-(2,2,2-Trifluoroethoxy)pyrimidin-5-yl)-2-((4-(trifluoromethyl)phenyl)amino)pyrimidine-4-carboxamide], on GSK3β, the IC50 amounted to 0.73 nM. The pIC50 in the test with pTau is 7.05; at GSK3α, 8.89.

For the compound `COc1ccc(Nc2nccc(C(=O)Nc3cncnc3Nc3ccc(OC)cc3)n2)cc1` [Example 78, 2-Amino-N-(6-methylpyridin-3-yl)pyrimidine-4-carboxamide 2-((4-methoxyphenyl)amino)-N-(4-((4-methoxyphenyl)amino)pyrimidin-5-yl)pyrimidine-4-carboxamide], the IC50 at GSK3β was determined as 28 nM. Moreover, the pIC50 in the test on pTau was 5.54; on GSK3α, 7.82.

Turning to `CN(C)CCOc1ccc(Nc2nccc(C(=O)Nc3cnccc3-c3ccccc3)n2)cn1` [Example 96, 2-((6-(2-(Dimethylamino)ethoxy)pyridin-3-yl)amino)-N-(4-phenylpyridin-3-yl)pyrimidine-4-carboxamide], the IC50 on GSK3β came out at 18 nM. Further, the pIC50 is 6.05 with pTau and 7.96 on GSK3α.

As for `O=C(Nc1cnccc1-c1ccc(F)cc1)c1ccnc(Nc2ccc(OC(F)(F)F)cc2)n1` [Example 48, N-(4-(4-Fluorophenyl)pyridin-3-yl)-2-((4-(trifluoromethoxy)phenyl)amino)pyrimidine-4-carboxamide], on GSK3β, the 50% inhibitory concentration (IC50) amounted to 1.5 nM. Besides, the pIC50 in the test on pTau was 6.77; on GSK3α, 8.89.

In the case of `COc1ccc(Nc2nccc(C(=O)Nc3cnccc3OCC(F)(F)F)n2)cc1` [Example 52, 2-((4-Methoxyphenyl)amino)-N-(4-(2,2,2-trifluoroethoxy)pyridin-3-yl)pyrimidine-4-carboxamide], at GSK3β, the IC50 came out at 0.07 nM. Moreover, the pIC50 in the test with pTau is 8.22; at GSK3α, 10.22.

Consider `CNc1nccc(C(=O)Nc2cnccc2-c2ccc(F)cc2F)n1` [Example 158, N-(4-(2,4-Difluorophenyl)pyridin-3-yl)-2-(methylamino)pyrimidine-4-carboxamide], for which the IC50 on GSK3β came out at 2.4 nM. The pIC50 was 7.02 with pTau and 8.72 on GSK3α.

Regarding `O=C(Nc1cnccc1-c1ccc(F)cc1F)c1ccnc(Nc2ccccc2)n1` [Example 151, N-(4-(2,4-Difluorophenyl)pyridin-3-yl)-2-(phenylamino)pyrimidine-4-carboxamide], the IC50 on GSK3β amounted to 0.67 nM. The pIC50 is 7.36 in the test with pTau and 9.49 at GSK3α.

For the compound `COc1ccc(Nc2nccc(C(=O)Nc3cnccc3-c3ccccc3)n2)cc1Cl` [Example 18, 2-((3-Chloro-4-methoxyphenyl)amino)-N-(4-phenylpyridin-3-yl)pyrimidine-4-carboxamide], the IC50 at GSK3β was 0.23 nM. Further, the negative logarithm of the IC50 (pIC50) in the test with pTau was 7.43; at GSK3α, 9.49.

In the case of `O=C(Nc1cnccc1-c1ccccc1)c1ccnc(Nc2ccc(-n3ccnc3)cc2)n1` [Example 16, 2-((4-(1H-Imidazol-1-yl)phenyl)amino)-N-(4-phenylpyridin-3-yl)pyrimidine-4-carboxamide], the IC50 on GSK3β amounted to 54 nM. In addition, the values for the pIC50 in the test on pTau and on GSK3α were 5.24 and 7.44, respectively.

For `O=C(Nc1cnccc1OCC(F)(F)F)c1ccnc(Nc2ccc3cnccc3c2)n1` [Example 106, 2-(Isoquinolin-6-ylamino)-N-(4-(2,2,2-trifluoroethoxy)pyridin-3-yl)pyrimidine-4-carboxamide], the IC50 at GSK3β was 0.11 nM. The pIC50 with pTau is 8.72; at GSK3α, 10.05.

For `O=C(Nc1cnccc1-c1ccc(F)cc1)c1ccnc(Nc2ccccc2)n1` [Example 43, N-(4-(4-Fluorophenyl)pyridin-3-yl)-2-(phenylamino)pyrimidine-4-carboxamide], on GSK3β, the IC50 was found to be 0.25 nM. Further, the values for the pIC50 in the test on pTau and on GSK3α were 7.47 and 9.72, respectively.

As to `CCCC1(c2cc(Cl)ncc2NC(=O)c2ccnc(NC3CC3)n2)OCCO1` [Example 166, N-(6-Chloro-4-(2-propyl-1,3-dioxolan-2-yl)pyridin-3-yl)-2-(cyclopropylamino)pyrimidine-4-carboxamide], on GSK3β, the IC50 stood at 0.73 nM. Moreover, the pIC50 in the test on pTau was 6.66; at GSK3α, 8.77.

For the compound `O=C(Nc1cnccc1-c1ccccc1F)c1ccnc(Nc2ccc3ccccc3c2)n1` [Example 154, N-(4-(2-Fluorophenyl)pyridin-3-yl)-2-(naphthalen-2-ylamino)pyrimidine-4-carboxamide], the concentration for half-maximal inhibition (IC50) at GSK3β stood at 1.4 nM. For the same compound, the results for the negative logarithm of the IC50 (pIC50) in the test on pTau and on GSK3α were 7.00 and 9.15, respectively.

Consider `O=C(Nc1cnccc1OCC(F)(F)F)c1ccnc(NCc2ccc3c(c2)OCO3)n1` [Example 132, 2-((Benzo[d][1,3]dioxol-5-ylmethyl)amino)-N-(4-(2,2,2-trifluoroethoxy)pyridin-3-yl)pyrimidine-4-carboxamide], for which the pIC50 is 8.72 on GSK3β, 6.66 with pTau and 8.66 at GSK3α.

In the case of `O=C(Nc1cnccc1-c1ccccc1)c1ccnc(NC2CCOCC2)n1` [Example 88, N-(4-Phenylpyridin-3-yl)-2-((tetrahydro-2H-pyran-4-yl)amino)pyrimidine-4-carboxamide], the IC50 on GSK3β stood at 2.6 nM. Moreover, the results for the pIC50 with pTau and on GSK3α were 6.82 and 8.85, respectively.

Regarding `O=C(Nc1cnc(F)cc1N1CCOCC1)c1ccnc(Nc2ccc(Cl)cc2F)n1` [Example 171, 2-((4-Chloro-2-fluorophenyl)amino)-N-(6-fluoro-4-morpholinopyridin-3-yl)pyrimidine-4-carboxamide], the pIC50 was 9.24 at GSK3β, 7.23 in the test on pTau and 9.33 at GSK3α.

The values are drawn from patent publication US10752609B2, “GSK-3 inhibitors” (priority 2016, dated 2020).
